Patent publication US10905680B2, “Methods of treatment for cholestatic and fibrotic diseases” (Genfit, priority 2016, dated 2021)

Key:
[1] = tested on: human primary hepatic stellate cells (hHSC); test: COL1A1 transcripts in TGFβ1-induced human HSC (RT-qPCR); assay type: cell-based; settings: TGFβ1 1 ng/ml, 24 hours
Protocol: Serum-deprived HSC were preincubated for 1 hour with NTZ (A) or TZ (B) before the activation with TGFβ1 (1 ng/ml). After 24 hours of incubation, the expression of COL1A1 was measured by RT-qPCR. Expression values were transformed into fold induction over TGFβ1 control. Data are presented as mean (triplicates)±standard deviation (SD). Statistical analyses were performed by one-way ANOVA followed by Bonferroni post-hoc tests, using Sigma Plot 11.0 software. [*: p<0.05; **: p<0.01; ***: p<0.001 (comparison versus TGFβ1 1 ng/mL group)]. The human primary hepatic stellate cells (hHSC) (Innoprot) were cultured under standard conditions, as described above. The cells were subsequently plated at a density of 7×10^4 cells/well into 24-well plates for gene expression studies, and at a density of 2×10^4 cells/well into 96-well plates for the measure of α-SMA by ELISA. The next day, cell culture medium was removed, and cells were washed with PBS (Invitrogen cat #14190). hHSC were deprived for 24 hours in serum-free and SteCGS-free medium. […] Quantitative PCR was then carried out using the MyiQ Single-Color Real-Time PCR Detection System (Biorad). […] Expression levels were determined using the standard curve equation for both the housekeeping gene and the target gene (taking into account the specific PCR efficiency of each target gene).

HSC = test: Toxicity assays in HSC; assay type: cell-based, human; settings: data not shown
[2] = tested on: rat primary hepatic stellate cells (rHSC); test: TGFβ1-induced expression of α-SMA protein in rat HSC (ELISA); assay type: cell-based; settings: TGFβ1 3 ng/ml, 48 hours
Protocol: NTZ (A) or TZ (B) were added to serum-deprived rat HSC (rHSC) 1 hour before the activation with TGFβ1 (3 ng/ml). After 48 hours of incubation, the expression of α-SMA was measured by ELISA. The obtained values were transformed into percentage inhibition over TGFβ1 control. Data are presented as mean (triplicates)±standard deviation (SD). Statistical analyses were performed by one-way ANOVA followed by Bonferroni post-hoc tests, using Sigma Plot 11.0 software. [*: p<0.05; **: p<0.01; ***: p<0.001 (comparison versus TGFβ1 3 ng/mL group)]. The rat primary hepatic stellate cells (rHSC) (Innoprot) were cultured in STeCM medium (ScienCell cat #5301) that was supplemented with 2% fetal bovine serum (FBS, ScienCell cat #0010), 1% penicillin/streptomycin (ScienCell cat #0503) and stellate cell growth supplement (SteCGS; ScienCell cat #5352). For the activation experiments with TGFβ1, the rHSC were plated at a density of 10×10^3 cells per well in 96-well plates. The next day, cell culture medium was removed, and cells were washed with PBS (Invitrogen cat #14190). rHSC were deprived for 24 hours in serum-free and SteCGS-free medium. […] The level of α-SMA was measured using a Sandwich ELISA. […]

SMILES: O=C(Nc1ncc([N+](=O)[O-])s1)c1ccccc1O [TZ, 2-hydroxy-N-(5-nitro-2-thiazolyl)benzamide]
- COL1A1 transcripts [1]: reduce
- toxicity or apoptosis of HSC (HSC): not due to toxicity or apoptosis
- α-SMA levels in TGFβ-activated HSC derived from rat [2]: reduced
